The results in this text go back to patent publication US7855290B2, “Pyridine derivatives and pyrimidine derivatives (3)” (Eisai R&D Management Co., Ltd., priority 2005, dated 2010).

SMILES strings stand for the structures.

The experiment deals with T1, HGFR (Homo sapiens, UniProt P08581).
T1 construct: endogenous in cells; host or cells: MKN-45 human gastric cancer cells
T1 sequence (P08581 25-1390): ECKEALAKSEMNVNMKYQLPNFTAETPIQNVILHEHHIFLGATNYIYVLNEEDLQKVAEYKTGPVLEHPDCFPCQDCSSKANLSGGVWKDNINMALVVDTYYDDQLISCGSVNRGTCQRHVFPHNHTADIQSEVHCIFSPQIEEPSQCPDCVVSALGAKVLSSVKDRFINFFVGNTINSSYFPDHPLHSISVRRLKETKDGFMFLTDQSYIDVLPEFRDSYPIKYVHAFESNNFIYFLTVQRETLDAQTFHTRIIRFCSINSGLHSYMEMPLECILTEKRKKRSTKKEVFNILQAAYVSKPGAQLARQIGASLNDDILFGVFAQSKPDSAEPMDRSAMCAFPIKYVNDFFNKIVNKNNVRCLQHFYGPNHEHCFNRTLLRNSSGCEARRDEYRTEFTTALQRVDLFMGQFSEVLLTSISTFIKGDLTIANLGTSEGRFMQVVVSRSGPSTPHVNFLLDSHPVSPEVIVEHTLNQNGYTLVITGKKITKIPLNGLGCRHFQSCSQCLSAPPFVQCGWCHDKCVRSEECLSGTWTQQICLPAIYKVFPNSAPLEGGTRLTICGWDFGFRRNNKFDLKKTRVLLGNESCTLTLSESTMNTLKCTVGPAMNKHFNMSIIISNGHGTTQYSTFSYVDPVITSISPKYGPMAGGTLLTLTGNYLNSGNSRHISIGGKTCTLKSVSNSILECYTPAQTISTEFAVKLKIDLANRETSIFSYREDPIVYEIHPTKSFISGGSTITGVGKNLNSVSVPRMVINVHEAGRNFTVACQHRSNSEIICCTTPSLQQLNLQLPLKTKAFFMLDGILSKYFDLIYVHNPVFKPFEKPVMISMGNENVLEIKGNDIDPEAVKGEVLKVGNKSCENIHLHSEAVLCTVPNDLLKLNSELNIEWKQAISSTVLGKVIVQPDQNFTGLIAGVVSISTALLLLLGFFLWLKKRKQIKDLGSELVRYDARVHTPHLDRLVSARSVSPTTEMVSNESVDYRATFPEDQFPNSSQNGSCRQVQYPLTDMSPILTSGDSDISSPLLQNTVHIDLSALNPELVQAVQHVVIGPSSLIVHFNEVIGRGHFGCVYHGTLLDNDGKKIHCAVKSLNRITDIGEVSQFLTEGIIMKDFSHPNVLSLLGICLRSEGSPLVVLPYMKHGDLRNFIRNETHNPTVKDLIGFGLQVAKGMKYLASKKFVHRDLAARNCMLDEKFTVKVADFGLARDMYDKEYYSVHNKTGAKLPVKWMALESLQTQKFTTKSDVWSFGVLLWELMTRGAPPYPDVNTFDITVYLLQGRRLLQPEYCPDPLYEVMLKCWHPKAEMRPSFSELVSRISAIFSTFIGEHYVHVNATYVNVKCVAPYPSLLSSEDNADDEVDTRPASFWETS
The experiment is described as follows: Inhibitory activity against the HGFR autophosphorylation using ELISA (MKN-45 cells). The class given is cell-based. The note with it: 1 hr with test substance. Here is the method: Human gastric cancer cells (MKN-45) were suspended in a 1% FBS-containing RPMI1640 medium (purchased from Sigma). The cell suspension (1×10^5 cells/ml) was put in a 96-well plate for cell culture (purchased from NUNC, Production No. 167008) at 0.1 ml/well, and then cultured in a 5% CO2 incubator (37° C.) overnight. After the culture, from each well was removed the supernatant, followed by adding 0.05 ml of a 1% FBS-containing RPMI1640 medium. Then, the well was supplied with 0.05 ml of the test substance dissolved in dimethyl sulfoxide (diluted with a 1% FBS-containing RPMI1640 medium), followed by culturing in a 5% CO2 incubator (37° C.) for 1 hr. From each well was removed the supernatant, and each well was washed with 150 μl of PBS, followed by adding 100 μl of a lysis buffer (50 mM Hepes (pH 7.4), 150 mM NaCl, 10% (v/v) glycerol, 1% Triton X-100, 1.5 mM MgCl2, 1 mM EDTA (pH 8.0), 100 mM NaF, 1 mM PMSF, 10 μg/ml Aprotinin, 50 μg/ml Leupeptin, 1 μg/ml Pepstatin A and 1 mM Na3VO4). The plate was shaken at 4° C. for 1 hr to prepare the cell extract.
To a 96-well plate for ELISA (purchased from COSTAR, Production No. 3369) was added 50 μl of 60 mM bicarbonate buffer (pH 9.6) containing 50 μg/ml of an anti-phosphotyrosine antibody (PY20, purchased from Transduction Laboratory, Production No. P-11120). The plate was incubated at 4° C. overnight.
Each well of the plate prepared in 2. was washed three times with 200 μl of PBS, and supplied with 150 μl of 3% BSA/PBS, followed by incubating at room temperature for 2 hrs. Each well was washed three times with 200 μl of PBS, and supplied with 50 μl of the above cell extract, followed by incubating at 4° C. overnight. After the incubation, each well was washed three times with 250 μl of a washing solution (0.1% BSA, 20 mM Tris-HCl (pH 7.6), 137 mM NaCl, and 0.05% Tween-20), and supplied with 70 μl of anti-HGFR antibody (h-Met(C-12), purchased from Santa Cruz, Production No. sc-10) 2,000-fold diluted with a reaction solution (1% BSA, 20 mM Tris-HCl (pH 7.6), 137 mM NaCl and 0.05% Tween-20), followed by incubating at room temperature for 1 hr. The well was washed three times with 250 μl of the washing solution, and supplied with 70 μl of peroxidase-labelled anti-rabbit IgG antibody (purchased from Cell Signaling, Production No. 7074) 2,000-fold diluted with the reaction solution, followed by incubating at room temperature for 1 hr. Each well was washed three times with 250 μl of the washing solution, and supplied with 70 μl of TMB Membrane Peroxidase Substrate (purchased from Funakoshi, Production No. 50-5077-03), followed by incubating at room temperature for 10 min. Each well was supplied with 70 μl of 1 M phosphoric acid, and using the Plate Reader MTP-500 (Corona Electric), the absorbance of the well was instantly determined at a measurement wavelength of 450 nm. While defining the absorbance of a well supplied with the cell extract having no test substance as 100% HGFR autophosphorylation activity, and the absorbance of a well supplied with 50 μl of the lysis buffer as 0% HGFR autophosphorylation activity, the HGFR autophosphorylation activity (%) was calculated for each well.
(In general: An ELISA detects its analyte on a solid surface through an enzyme-linked reagent.)
The compound `O=C(Nc1cc(Oc2ccc(NC(=O)C3(C(=O)Nc4ccc(F)cc4)CC3)cc2F)ncn1)N1CCOCC1` [Example 35, N-[3-Fluoro-4-({6-{(morpholin-4-ylcarbonyl)amino}pyrimidin-4-yl}oxy)phenyl]-N′-(4-fluorophenyl)cyclopropane-1,1-dicarboxamide] returned an IC50 of 120 nM.
To `CN(C)[C@@H]1CCN(C(=O)Nc2cc(Oc3ccc(NC(=O)C4(C(=O)Nc5ccc(F)cc5)CC4)cc3F)ccn2)C1` [Example 36, N-(4-{[2-({[(3R)-3-(Dimethylamino)pyrrolidin-1-yl]carbonyl}amino)pyridin-4-yl]oxy}-3-fluorophenyl)-N′-(4-fluorophenyl)cyclopropane-1,1-dicarboxamide] belongs 15 nM; to `O=C(Nc1cc(Oc2ccc(NC(=O)C3(C(=O)Nc4ccc(F)cc4)CC3)c(F)c2)ccn1)N1CCC(CN2CCC2)CC1` [Example 37, N-(4-{[2-({[4-(Azetidin-1-ylmethyl)piperidin-1-yl]carbonyl}amino)pyridin-4-yl]oxy}-2-fluorophenyl)-N′-(4-fluorophenyl)cyclopropane-1,1-dicarboxamide], 6.6 nM.
Compound `CN(C)C1CN(C2CCN(C(=O)Nc3cc(Oc4ccc(NC(=O)C5(C(=O)Nc6ccc(F)cc6)CC5)cc4)ccn3)CC2)C1` [Example 38, N-[4-({2-[({4-[3-(Dimethylamino)azetidin-1-yl]piperidin-1-yl}carbonyl)amino]pyridin-4-yl}oxy)phenyl]-N′-(4-fluorophenyl)cyclopropane-1,1-dicarboxamide] gave an IC50 of 18 nM.
As for `CN(C)CCN1CCC(N(C)C(=O)Nc2cc(Oc3ccc(NC(=O)C4(C(=O)Nc5ccc(F)cc5)CC4)cc3)ccn2)CC1` [Example 39, N-(4-{[2-({[{1-[2-(Dimethylamino)ethyl]piperidin-4-yl}(methyl)amino]carbonyl}amino)pyridin-4-yl]oxy}phenyl)-N′-(4-fluorophenyl)cyclopropane-1,1-dicarboxamide], the IC50 stood at 16 nM.
The compound `O=C(Nc1cc(Oc2ccc(NC(=O)C3(C(=O)Nc4ccc(F)cc4)CC3)c(F)c2)ccn1)N1CCC(CN2CCCC2)CC1` [Example 40, N-(4-Fluorophenyl)-N′-(2-fluoro-4-{[2-({[4-(pyrrolidin-1-ylmethyl)piperidin-1-yl]carbonyl}amino)pyridin-4-yl]oxy}phenyl)cyclopropane-1,1-dicarboxamide] came in with an IC50 of 8 nM.
Consider `CN(C)[C@H]1CCN(C(=O)Nc2cc(Oc3ccc(NC(=O)C4(C(=O)Nc5ccc(F)cc5)CC4)cc3)ccn2)C1` [Example 41, N-(4-{[2-({[(3S)-3-(Dimethylamino)pyrrolidin-1-yl]carbonyl}amino)pyridin-4-yl]oxy}phenyl)-N′-(4-fluorophenyl)cyclopropane-1,1-dicarboxamide], for which the IC50 stood at 16 nM.
As for `CN(C)[C@@H]1CCN(C(=O)Nc2cc(Oc3ccc(NC(=O)C4(C(=O)Nc5ccc(F)cc5)CC4)cc3)ccn2)C1` [Example 42, N-(4-{[2-({[(3R)-3-(Dimethylamino)pyrrolidin-1-yl]carbonyl}amino)pyridin-4-yl]oxy}phenyl)-N′-(4-fluorophenyl)cyclopropane-1,1-dicarboxamide], inhibition was half-maximal at 42 nM (IC50).
For the compound `CCN(CC)CCCNC(=O)Nc1cc(Oc2ccc(NC(=O)C3(C(=O)Nc4ccc(F)cc4)CC3)c(Cl)c2)ccn1` [Example 43, N-[2-Chloro-4-({2-[({[3-(diethylamino)propyl]amino}carbonyl)amino]pyridin-4-yl}oxy)phenyl]-N′-(4-fluorophenyl)cyclopropane-1,1-dicarboxamide], the IC50 came out at 330 nM.
In turn, `CCN(CC)CCCN(C)C(=O)Nc1cc(Oc2ccc(NC(=O)C3(C(=O)Nc4ccc(F)cc4)CC3)cc2F)ccn1` [Example 44, N-(4-{[2-({[[3-(Diethylamino)propyl](methyl)amino]carbonyl}amino)pyridin-4-yl]oxy}-3-fluorophenyl)-N′-(4-fluorophenyl)cyclopropane-1,1-dicarboxamide] showed an IC50 of 80 nM.
On to `CCN(CC)CCCNC(=O)Nc1cc(Oc2ccc(NC(=O)C3(C(=O)Nc4ccc(F)cc4)CC3)cc2C)ccn1` [Example 45, N-[4-({2-[({[3-(Diethylamino)propyl]amino}carbonyl)amino]pyridin-4-yl}oxy)-3-methylphenyl]-N′-(4-fluorophenyl)cyclopropane-1,1-dicarboxamide], for which it took 440 nM to reach half-maximal inhibition (IC50).
Regarding `CN(C)[C@H]1CCN(C(=O)Nc2cc(Oc3ccc(NC(=O)C4(C(=O)Nc5ccc(F)cc5)CC4)c(F)c3)ccn2)C1` [Example 46, N-(4-{[2-({[(3S)-3-(Dimethylamino)pyrrolidin-1-yl]carbonyl}amino)pyridin-4-yl]oxy}-2-fluorophenyl)-N′-(4-fluorophenyl)cyclopropane-1,1-dicarboxamide], the IC50 came to 19 nM.
To `CN(C)[C@@H]1CCN(C(=O)Nc2cc(Oc3ccc(NC(=O)C4(C(=O)Nc5ccc(F)cc5)CC4)c(F)c3)ccn2)C1` [Example 47, N-(4-{[2-({[(3R)-3-(Dimethylamino)pyrrolidin-1-yl]carbonyl}amino)pyridin-4-yl]oxy}-2-fluorophenyl)-N′-(4-fluorophenyl)cyclopropane-1,1-dicarboxamide] belongs 30 nM; to `CN1CCC(N(C)C(=O)Nc2cc(Oc3ccc(NC(=O)C4(C(=O)Nc5ccccc5)CC4)c(F)c3)ccn2)CC1` [Example 48, N-(2-Fluoro-4-{[2-({[methyl(1-methylpiperidin-4-yl)amino]carbonyl}amino)pyridin-4-yl]oxy}phenyl)-N′-phenylcyclopropane-1,1-dicarboxamide], 12 nM; to `CN1CCN(C2CCN(C(=O)Nc3cc(Oc4ccc(NC(=O)C5(C(=O)Nc6ccccc6)CC5)c(F)c4)ccn3)CC2)CC1` [Example 54, N-(2-Fluoro-4-{[2-({[4-(4-methylpiperazin-1-yl)piperidin-1-yl]carbonyl}amino)pyridin-4-yl]oxy}phenyl)-N′-phenylcyclopropane-1,1-dicarboxamide], 24 nM.
Take `CN(C)C1CN(C2CCN(C(=O)Nc3cc(Oc4ccc(NC(=O)C5(C(=O)Nc6ccccc6)CC5)c(F)c4)ccn3)CC2)C1` [Example 55]: 16 nM corresponded to half-maximal inhibition (IC50).
In turn, `CN1CCC(N(C)C(=O)Nc2cc(Oc3ccc(NC(=O)C4(C(=O)Nc5ccc(F)cc5F)CC4)c(F)c3)ccn2)CC1` [Example 56, N-(2,4-Difluorophenyl)-N′-(2-fluoro-4-{[2-({[methyl(1-methylpiperidin-4-yl)amino]carbonyl}amino)pyridin-4-yl]oxy}phenyl)cyclopropane-1,1-dicarboxamide] showed an IC50 of 41 nM.
On to `CN1CCC(N(C)C(=O)Nc2cc(Oc3ccc(NC(=O)C4(C(=O)Nc5ccccc5F)CC4)c(F)c3)ccn2)CC1` [Example 57, N-(2-Fluoro-4-{[2-({[methyl(1-methylpiperidin-4-yl)amino]carbonyl}amino)pyridin-4-yl]oxy}phenyl)-N′-(2-fluorophenyl)cyclopropane-1,1-dicarboxamide], for which inhibition was half-maximal at 82 nM (IC50).
`CN(C)[C@H]1CCN(C(=O)Nc2cc(Oc3ccc(NC(=O)C4(C(=O)Nc5ccccc5)CC4)c(F)c3)ccn2)C1` [Example 58, N-(4-{[2-({[(3S)-3-(Dimethylamino)pyrrolidin-1-yl]carbonyl}amino)pyridin-4-yl]oxy}-2-fluorophenyl)-N′-phenylcyclopropane-1,1-dicarboxamide] showed an IC50 of 17 nM.
Turning to `CN(C)[C@@H]1CCN(C(=O)Nc2cc(Oc3ccc(NC(=O)C4(C(=O)Nc5ccccc5)CC4)c(F)c3)ccn2)C1` [Example 59, N-(4-{[2-({[(3R)-3-(Dimethylamino)pyrrolidin-1-yl]carbonyl}amino)pyridin-4-yl]oxy}-2-fluorophenyl)-N′-phenylcyclopropane-1,1-dicarboxamide], half-maximal inhibition (IC50) required 16 nM.

As usually defined, the IC50 is the concentration needed to halve the response being measured. Low readings indicate inhibition by little substance, high ones a need for much substance.
